Test results published in article PMC10698726 (Molecular Pharmaceutics, 2023).
Read-outs that look alike come from different tables or passages of the source.

Legend:
OCT3 [1] = molecular target: T1, OCT3 (Homo sapiens, UniProt O75751); assay: Concentration-dependent uptake of model substrates, OCT3-overexpressing HEK293 cells; type: in vitro ADME; settings: this study
T1 construct: expressed in transfected cells; host or cells: HEK293
T1 sequence (O75751 1-556): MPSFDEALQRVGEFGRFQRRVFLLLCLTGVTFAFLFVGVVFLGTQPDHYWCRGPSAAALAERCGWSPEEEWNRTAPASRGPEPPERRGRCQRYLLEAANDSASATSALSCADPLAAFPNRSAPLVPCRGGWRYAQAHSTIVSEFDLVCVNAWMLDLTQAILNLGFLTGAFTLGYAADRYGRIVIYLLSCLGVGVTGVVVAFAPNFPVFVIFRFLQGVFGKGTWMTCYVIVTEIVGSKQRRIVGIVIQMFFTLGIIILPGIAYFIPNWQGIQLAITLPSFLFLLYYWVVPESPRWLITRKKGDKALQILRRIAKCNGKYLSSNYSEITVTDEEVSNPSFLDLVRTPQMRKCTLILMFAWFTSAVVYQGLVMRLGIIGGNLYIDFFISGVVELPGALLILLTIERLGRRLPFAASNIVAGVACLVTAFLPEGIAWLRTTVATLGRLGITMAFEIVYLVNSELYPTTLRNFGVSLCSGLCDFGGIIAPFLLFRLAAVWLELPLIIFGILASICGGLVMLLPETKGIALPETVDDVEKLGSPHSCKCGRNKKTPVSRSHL
Description: (§1) Koepsell and Gorbulev (University of Würzburg, Germany).
(§2) Prior to inhibition studies, the used model substrates were validated in concentration-dependent uptake experiments if no literature data were available (Table S2 and Figures S2 and S3). Thereby, we ensured that the model substrate concentration used in the subsequent inhibition experiments was sufficiently below the Km value of its uptake kinetics. […] On the day of the experiment, the cells were washed once with prewarmed to 37 °C HBSS (Thermo Fisher Scientific, Darmstadt, Germany) supplemented with 10 mM HEPES and pH adjusted to 7.4 (Sigma-Aldrich)—hereafter termed HBSS+. For concentration-dependent experiments, the cells were incubated with increasing substrate concentrations for 2 min. Uptake was terminated by adding ice-cold HBSS+. Afterward, the cells were washed twice with ice-cold HBSS+, and cell lysis was done with 80% (v/v) acetonitrile (LGC Standards, Wesel, Germany) to which an internal standard for eventual LC–MS/MS analysis had been added. Intracellularly accumulated substrates were then quantified by LC–MS/MS analysis, and calibration was performed with known concentrations of the respective substances. All uptake data were normalized to the number of seeded cells by measuring the total protein content in radioimmunoprecipitation assay buffer-lysed cells in a bicinchoninic acid assay.[29]

OCT2 [2] = molecular target: T2, OCT2 (Homo sapiens, UniProt O15244); assay: Concentration-dependent uptake of model substrates, OCT2-overexpressing HEK293 cells; type: in vitro ADME; parameters: expressed in transfected cells; host or cells: HEK293; settings: this study; for Km: read-out: Km ± SEM; for Clint ± SEM: vmax over Km
T2 sequence (O15244 1-555): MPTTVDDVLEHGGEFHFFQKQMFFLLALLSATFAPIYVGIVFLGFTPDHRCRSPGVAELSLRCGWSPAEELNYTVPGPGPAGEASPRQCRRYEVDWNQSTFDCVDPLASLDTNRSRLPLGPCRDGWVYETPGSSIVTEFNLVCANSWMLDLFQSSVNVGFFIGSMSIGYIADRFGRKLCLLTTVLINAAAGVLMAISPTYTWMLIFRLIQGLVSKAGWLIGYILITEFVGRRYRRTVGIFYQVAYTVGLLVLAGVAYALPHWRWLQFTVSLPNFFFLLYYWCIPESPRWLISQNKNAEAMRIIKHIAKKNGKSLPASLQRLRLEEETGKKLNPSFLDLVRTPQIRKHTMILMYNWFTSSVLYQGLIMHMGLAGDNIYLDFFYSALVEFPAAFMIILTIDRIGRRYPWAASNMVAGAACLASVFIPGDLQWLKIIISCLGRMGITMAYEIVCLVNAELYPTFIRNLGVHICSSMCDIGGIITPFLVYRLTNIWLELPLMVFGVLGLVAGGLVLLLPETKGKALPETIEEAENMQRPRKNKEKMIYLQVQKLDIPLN
Description: as §1, §2

OCT1 [3] = molecular target: T3, OCT1 (Homo sapiens, UniProt O15245); assay: Concentration-dependent uptake of model substrates, OCT1-overexpressing HEK293 cells; type: in vitro ADME; parameters: expressed in transfected cells; host or cells: HEK293; settings: this study
T3 sequence (O15245 1-554): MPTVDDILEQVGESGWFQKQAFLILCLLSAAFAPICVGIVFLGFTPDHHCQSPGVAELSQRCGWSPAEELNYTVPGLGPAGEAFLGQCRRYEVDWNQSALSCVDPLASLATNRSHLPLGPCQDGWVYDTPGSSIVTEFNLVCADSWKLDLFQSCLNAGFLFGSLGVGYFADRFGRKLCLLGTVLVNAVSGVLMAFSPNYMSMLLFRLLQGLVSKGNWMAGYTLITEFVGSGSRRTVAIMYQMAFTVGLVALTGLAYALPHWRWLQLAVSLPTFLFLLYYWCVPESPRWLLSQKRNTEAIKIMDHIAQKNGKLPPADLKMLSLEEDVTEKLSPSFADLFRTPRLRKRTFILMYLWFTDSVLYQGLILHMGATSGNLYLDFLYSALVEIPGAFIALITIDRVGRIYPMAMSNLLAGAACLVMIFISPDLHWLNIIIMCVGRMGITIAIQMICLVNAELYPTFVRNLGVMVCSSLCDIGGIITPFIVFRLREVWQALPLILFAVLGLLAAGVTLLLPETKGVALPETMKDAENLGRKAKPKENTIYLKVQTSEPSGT
Description: as §1, §2

OCT3 [4] = molecular target: T1, OCT3; parameters: method as in earlier work; settings: ref 3 (Gebauer et al., 2022, supplement), cited from earlier work; for Km: read-out: Km ± SEM
OCT2 [5] = molecular target: T2, OCT2; assay: Inhibition of model substrate uptake in OCT2-overexpressing HEK293 cells; settings: OCT2, 20 μM inhibitor, 5 min; for inhibition at 5 min, 20 μM: human, OCT2-overexpressing HEK293 cells
OCT3 [6] = molecular target: T1, OCT3; assay: Inhibition of model substrate uptake in OCT3-overexpressing HEK293 cells; type: cell-based; settings: 5 min; for IC50: OCT3, Table S5, 2 μM ASP+ or ethambutol as model substrate, read-out: IC50
In short: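 Transporter-overexpressing HEK293 cells were incubated 5 min in HBSS+ with 2 μM model substrate, with or without 20 μM inhibitor or increasing inhibitor concentrations. Uptake was read as ASP^+ fluorescence or by LC–MS/MS, with empty-vector uptake subtracted. IC50 came from a Hill fit of activity versus log concentration.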

OCT1 [7] = molecular target: T3, OCT1; assay: Inhibition of model substrate uptake in OCT1-overexpressing HEK293 cells; type: cell-based; parameters: expressed in transfected cells; host or cells: HEK293; settings: OCT1, 20 μM inhibitor, 5 min; for inhibition at 5 min, 20 μM: human, OCT1-overexpressing HEK293 cells
Description: as §1
Fluorescence quantification was performed in technical duplicates.

not read = substrate: CCC(CO)NCCNC(CC)CO; assay: not read
[8] = pH 7.4, probe (S,S)-ethambutol (2 μM), (S,S)-Ethambutol inhibition [%], 2 μM (S,S)-ethambutol
[9] = pH 7.4, probe ASP+ (2 μM), ASP+ inhibition [%], 2 μM ASP+
[10] = pH 7.4, probe N-ethyllidocaine (2 μM), N-Ethyllidocaine inhibition [%], 2 μM N-ethyllidocaine
[11] = HEK293, 5 min, read-out: (S)-Zolmitriptan inhibition [%], OCT3, 20 μM inhibitor, 2 μM (S)-zolmitriptan
[12] = HEK293, 5 min, read-out: (S,S)-Ethambutol inhibition [%], OCT3, 20 μM inhibitor, 2 μM (S,S)-ethambutol
[13] = HEK293, OCT3, 20 μM inhibitor, 2 μM ASP+, read-out: ASP+ inhibition [%]
[14] = pH 7.4, probe ASP+ (2 μM), 2 μM ASP+, mean of three experiments, read-out: ASP+ inhibition [%]
[15] = pH 7.4, probe sumatriptan (2 μM), 2 μM sumatriptan, read-out: Sumatriptan inhibition [%]

Molecule: CN(C)c1ccc(C=Cc2cc[n+](C)cc2)cc1 [ASP+, 4-(4-(dimethylamino)styryl)-N-methylpyridinium]
- vmax ± SEM [pmol × mg Protein−1 × min−1] (OCT3 [1]): 3381 pmol × mg Protein−1 × min−1
- Km (OCT3 [1]; read-out: Km ± SEM): 16.5 µM
- Clint ± SEM (OCT3 [1]; vmax over Km): 205
- vmax ± SEM [pmol × mg Protein−1 × min−1] (OCT2 [2]): 1812 pmol × mg Protein−1 × min−1
- Km (OCT2 [2]): 29.6 µM
- Clint ± SEM (OCT2 [2]): 61.3
- Km (OCT1 [3]; 2 min uptake, read-out: Km ± SEM): 11.7 µM
- vmax ± SEM [pmol × mg Protein−1 × min−1] (OCT1 [3]): 2678 pmol × mg Protein−1 × min−1
- Clint ± SEM (OCT1 [3]; vmax over Km): 230

Molecule: NC(N)=Nc1nc(CSCCC(N)=NS(N)(=O)=O)cs1 [Famotidine]
- Km (OCT3 [4]): 8.91 µM
- Clint ± SEM (OCT3 [4]): 27.2
- vmax ± SEM [pmol × mg Protein−1 × min−1] (OCT3 [4]): 242 pmol × mg Protein−1 × min−1

Molecule: CC[N+](CC)(CC)CC(=O)Nc1c(C)cccc1C [N-Ethyllidocaine]
- Km (OCT3 [4]): 46.3 µM
- Clint ± SEM (OCT3 [4]): 8.80
- vmax ± SEM [pmol × mg Protein−1 × min−1] (OCT3 [4]): 407 pmol × mg Protein−1 × min−1
- vmax ± SEM [pmol × mg Protein−1 × min−1] (OCT2 [2]): 5172 pmol × mg Protein−1 × min−1
- Km (OCT2 [2]): 87.7 µM
- Clint ± SEM (OCT2 [2]): 58.9

Molecule: C=C[C@H]1C[N@@]2CC[C@H]1C[C@@H]2[C@@H](O)c1ccnc2ccc(OC)cc12 [Quinidine]
- inhibition at 5 min, 20 μM (OCT2 [5]; [8]): 13.3%
- inhibition at 5 min, 20 μM (OCT2 [5]; [9]): 93.4%
- inhibition at 5 min, 20 μM (OCT2 [5]; [10]): 50.8%
- inhibition at 20 µM (OCT3 [6]; [11]): 67%
- inhibition at 20 µM (OCT3 [6]; [12]): 85.9%
- inhibition at 20 µM (OCT3 [6]; [13]): 38.9%
- IC50 (OCT3 [6]): 249 µM
- inhibition at 5 min, 20 μM (OCT1 [7]; [8]): 61.7%
- inhibition at 5 min, 20 μM (OCT1 [7]; [14]): 13.1%
- inhibition at 5 min, 20 μM (OCT1 [7]; [15]): 41.3%

Molecule: C=C[C@H]1C[N@@]2CC[C@H]1C[C@H]2[C@H](O)c1ccnc2ccc(OC)cc12 [Quinine]
- inhibition at 5 min, 20 μM (OCT2 [5]; [8]): 13.4%
- inhibition at 5 min, 20 μM (OCT2 [5]; [9]): 76.9%
- inhibition at 5 min, 20 μM (OCT2 [5]; [10]): 33.7%
- inhibition at 20 µM (OCT3 [6]; [11]): 32.1%
- inhibition at 20 µM (OCT3 [6]; [12]): 46.2%
- inhibition at 20 µM (OCT3 [6]; [13]): 10.3%
- IC50 (OCT3 [6]): 78.9 µM
- inhibition at 5 min, 20 μM (OCT1 [7]; [8]): 54.8%
- inhibition at 5 min, 20 μM (OCT1 [7]; [14]): 15.5%
- inhibition at 5 min, 20 μM (OCT1 [7]; [15]): 38.2%

Molecule: (+)-Sparteine
- ASP+ inhibition [%] (OCT2 [5]; 2 μM ASP+): 112.4%
- N-Ethyllidocaine inhibition [%] (OCT2 [5]; 2 μM N-ethyllidocaine): 99.9%
- (S)-Zolmitriptan inhibition [%] (OCT3 [6]; OCT3, 20 μM inhibitor, 2 μM (S)-zolmitriptan): 28.7%
- (S,S)-Ethambutol inhibition [%] (OCT3 [6]; OCT3, 20 μM inhibitor, 2 μM (S,S)-ethambutol): 32.7%
- ASP+ inhibition [%] (OCT3 [6]; OCT3, 20 μM inhibitor, 2 μM ASP+): 5.2%
- (S,S)-Ethambutol inhibition [%] (OCT1 [7]; 2 μM (S,S)-ethambutol): 83.5%
- Sumatriptan inhibition [%] (OCT1 [7]; 2 μM sumatriptan): 81.6%

B1: OCT2 (Homo sapiens) (protein)
chain: T2 sequence (O15244 1-555)
- Km (not read; other: OCT2, this study): 163 µM
- Vmax (not read; other: OCT2, this study): 0.00597 µmol/min/mg

B2: OCT3 (Homo sapiens) (protein)
chain: T1 sequence (O75751 1-556)
- Km (not read; other: OCT3, this study): 146 µM
- Vmax (not read; other: OCT3, this study): 0.00246 µmol/min/mg
